Experimental data as given in patent US8426469B2, “Crystalline leukotriene B4” (LTB4 Sweden AB, priority 2006, dated 2013).
“Also recorded” adds a separate entry of the source.

Tests used:
[1] = stability of leukotriene B4 as a function of pH; assay type: physicochemical; conditions: alkaline pH versus neutral or acidic pH
From the text: Accordingly, in a preferred embodiment, the composition according to the present invention comprises an alkaline reacting carrier. The expression “alkaline reacting carrier”, in the context of the present invention, is intended to include an otherwise inert, pharmaceutically acceptable substance (or substances), which creates an alkaline “micro-pH” between 8.2 and 14, especially between 8.5 and 12.5, such as between 8.5 and 11.5, most preferably between 9.5 and 11.5, such as about 9.5, 9.6, 9.7, 9.8, 9.9, 10.0, 10.1, 10.2, 10.3, 10.4, 10.5, 10.6, 10.7, 10.8, 10.9, 11.0, 11.1, 11.2, 11.3, 11.4, or 11.5, around each LTB4 particle when water is adsorbed to the particles of the mixture or when water is added in small amounts to the mixture. In another preferred embodiment, the alkaline “micro-pH” ranges between 8.0 and 9.0, between 8.5 and 9.5, between 9.0 and 10.0, or between 10.0 and 11.5. […]

[2] = solubility of LTB4 in various solvents; assay type: physicochemical; conditions: Table 1; the value is the solvent
From the text: Table 1 below summarizes the solubility of LTB4 in various solvents.

[3] = pH 7.0-7.6, stored at 2° C. to 25° C. (and above 25° C.); cited from earlier work

CCCCC/C=C\C[C@@H](O)/C=C/C=C/C=C\[C@@H](O)CCCC(=O)O [LTB4, 5S,12R-dihydroxy-6,8,10,14(Z,E,E,Z)-eicosatetraenoic acid]
stability depending on pH [1]: more stable at alkaline pH than at neutral or acidic pH | Slightly soluble or insoluble (solvent in which LTB4 is slightly soluble or insoluble; anti-solvent) [2]: Toluene; also recorded: Water; also recorded: Heptane | stability of isotonic aqueous solution [3]: stable for only short periods of time (weeks to months)
